Laboratory results as given in patent US20250034167A1, “HETEROCYCLIC COMPOUNDS AND METHODS OF USE” (AMGEN INC., priority 2021, published 2025).
Read-outs that look alike come from different tables or passages of the source.

What was measured:
[1] = molecular target: His-tagged KRAS G12D protein (Homo sapiens, UniProt P01116, G12D); assay: biochemical
[2] = system: Phosphorylation of ERK1/2 in AsPC-1 cells; assay: Phospho-ERK1/2 MSD Assay; format: cell-based
Description: Sixteen hours prior to compound treatment, AsPC-1 cells were seeded in 96-well cell culture plates at a density of 25,000 cells/well and incubated at 37° C., 5% CO2. A compound dose-response titration was diluted in growth media, added to appropriate wells of a cell culture plate, and then incubated at 37° C., 5% CO2 for 2 hours.

[3] = Homo sapiens, ASPC1, 2 h, read-out: 2 h p-ERK (AsPC-1 cells), IC50, AsPC-1 cells, 2 h compound treatment
[4] = read-out: 2 h p-ERK (AsPC-1 cells), IC50, AsPC-1 cells, 2 h compound treatment

Chain of His-tagged KRAS G12D protein (P01116 1-188 isoform P01116-2 G12D): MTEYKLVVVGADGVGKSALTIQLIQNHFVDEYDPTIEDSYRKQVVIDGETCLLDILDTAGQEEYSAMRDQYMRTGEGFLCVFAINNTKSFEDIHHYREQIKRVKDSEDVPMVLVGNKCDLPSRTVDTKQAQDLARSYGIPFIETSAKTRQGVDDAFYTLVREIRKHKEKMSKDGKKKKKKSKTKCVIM

Compound | IC50 [1] [nM] | IC50 [2, 3] [nM] | IC50 [2, 4] [nM]
CCc1c(F)ccc2cc(O)cc(-c3ncc4c(N5C[C@@H](O)C[C@@H](F)C5)nc(OC[C@@]56CCCN5C[C@H](F)C6)nc4c3F)c12 (mixture of isomers) [Example 115, rac-(3S,5R)-1-(7-(8-Ethyl-7-fluoro-3-hydroxynaphthalen-1-yl)-8-fluoro-2-(((2R,7aS)-2-fluorotetrahydro-1H-pyrrolizin-7a(5H)-yl)methoxy)pyrido[4,3-d]pyrimidin-4-yl)-5-fluoropiperidin-3-ol] | 3 | 83 | –
CCc1c(F)ccc2cc(O)cc(-c3ncc4c(N5C[C@@H](O)C[C@H](F)C5)nc(OC[C@@]56CCCN5C[C@H](F)C6)nc4c3F)c12 (racemic) [Example 116, rac-(35,5S)-1-(7-(8-Ethyl-7-fluoro-3-hydroxynaphthalen-1-yl)-8-fluoro-2-(((2R,7aS)-2-fluorotetrahydro-1H-pyrrolizin-7a(5H)-yl)methoxy)pyrido[4,3-d]pyrimidin-4-yl)-5-fluoropiperidin-3-ol] | 4 | 792 | –
CCc1c(F)ccc2cc(O)cc(-c3ncc4c(N5CC[C@H](O)[C@H](O)C5)nc(OC[C@@]56CCCN5C[C@H](F)C6)nc4c3F)c12 (relative stereo) [Example 100, rel-(3R,4S)-1-(7-(8-Ethyl-7-fluoro-3-hydroxynaphthalen-1-yl)-8-fluoro-2-(((2R,7aS)-2-fluorotetrahydro-1H-pyrrolizin-7a(5H)-yl)methoxy)pyrido[4,3-d]pyrimidin-4-yl)piperidine-3,4-diol] | 9 | 3700 | –
CCc1c(F)ccc2cc(O)cc(-c3ncc4c(N5CC6CC(O)C(C6)C5)nc(OC[C@@]56CCCN5C[C@H](F)C6)nc4c3F)c12 (single isomer, unassigned) [Example 23] | 31 | – | 2380
CCc1c(F)ccc2cc(O)cc(-c3ncc4c(N5CC6CC(O)C(C6)C5)nc(OC[C@@]56CCCN5C[C@H](F)C6)nc4c3F)c12 (single isomer, unassigned) [Example 24] | 2 | – | 14
C#Cc1c(F)ccc2cc(O)cc(-c3ncc4c(N5CC6CC(O)C(C6)C5)nc(OC[C@@]56CCCN5C[C@H](F)C6)nc4c3F)c12 (single isomer, unassigned) [Example 28] | 1 | – | 36
C#Cc1c(F)ccc2cc(O)cc(-c3ncc4c(N5CCCC(O)(C(F)F)C5)nc(OC[C@@]56CCCN5C[C@H](F)C6)nc4c3F)c12 (single isomer, unassigned) [Example 41] | 1 | 25 | –
CCc1c(F)ccc2cc(O)cc(-c3ncc4c(N5CCCC(C#N)CC5)nc(OC[C@@]56CCCN5C[C@H](F)C6)nc4c3F)c12 (single isomer, unassigned) [Example 54] | 3 | – | 116
CCc1c(F)ccc2cc(O)cc(-c3ncc4c(N5CC6CC(C#N)C(C6)C5)nc(OC[C@@]56CCCN5C[C@H](F)C6)nc4c3F)c12 (single isomer, unassigned) [Example 145] | 8 | – | 593
CCc1c(F)ccc2cc(O)cc(-c3ncc4c(N5CC6CC(C#N)C(C6)C5)nc(OC[C@@]56CCCN5C[C@H](F)C6)nc4c3F)c12 (single isomer, unassigned) [Example 146] | 2 | – | 233
CCC1CCCc2cc(O)cc(-c3ncc4c(N5CCC[C@@](C)(O)C5)nc(OC[C@@]56CCCN5C[C@H](F)C6)nc4c3F)c21 (single isomer, unassigned) [Example 173] | 4 | 22 | –
CCc1c(F)ccc2cc(O)cc(-c3ncc4c(N5CCCCCC5)nc(OC[C@@]56CCCN5C[C@H](F)C6)nc4c3F)c12 [Example 2, 4-(4-(Azepan-1-yl)-8-fluoro-2-(((2R,7aS)-2-fluorotetrahydro-1H-pyrrolizin-7a(5H)-yl)methoxy)pyrido[4,3-d]pyrimidin-7-yl)-5-ethyl-6-fluoronaphthalen-2-ol] | 1 | 115 | –

Continued by falling IC50 [1], values first:

IC50 [1] [nM] | IC50 [2, 3] [nM] | IC50 [2, 4] [nM] | Compound
55 | > 10000 | – | CCc1c(F)ccc2cc(O)cc(-c3ncc4c(N5CCC(C(N)=O)CC5)nc(OC[C@@]56CCCN5C[C@H](F)C6)nc4c3F)c12 [Example 6, 1-(7-(8-Ethyl-7-fluoro-3-hydroxynaphthalen-1-yl)-8-fluoro-2-(((2R,7aS)-2-fluorotetrahydro-1H-pyrrolizin-7a(5H)-yl)methoxy)pyrido[4,3-d]pyrimidin-4-yl)piperidine-4-carboxamide]
38 | 810 | – | CCc1c(F)ccc2cc(O)cc(-c3ncc4c(N5CCC[C@H]6OCC[C@H]65)nc(OC[C@@]56CCCN5C[C@H](F)C6)nc4c3F)c12 (relative stereo) [Example 42, rel-5-Ethyl-6-fluoro-4-(8-fluoro-2-(((2R,7aS)-2-fluorotetrahydro-1H-pyrrolizin-7a(5H)-yl)methoxy)-4-((3aR,7aR)-hexahydrofuro[3,2-b]pyridin-4(2H)-yl)pyrido[4,3-d]pyrimidin-7-yl)naphthalen-2-ol]
21 | > 10000 | – | CCc1c(F)ccc2cc(O)cc(-c3ncc4c(N5CCC[C@H]5C(N)=O)nc(OC[C@@]56CCCN5C[C@H](F)C6)nc4c3F)c12 [Example 4, (S)-1-(7-(8-Ethyl-7-fluoro-3-hydroxynaphthalen-1-yl)-8-fluoro-2-(((2R,7aS)-2-fluorotetrahydro-1H-pyrrolizin-7a(5H)-yl)methoxy)pyrido[4,3-d]pyrimidin-4-yl)pyrrolidine-2-carboxamide]
20 | > 10000 | – | CCc1c(F)ccc2cc(O)cc(-c3ncc4c(N5CC[C@H](O)[C@@H](O)C5)nc(OC[C@@]56CCCN5C[C@H](F)C6)nc4c3F)c12 (relative stereo) [Example 101, rel-(3S,4S)-1-(7-(8-Ethyl-7-fluoro-3-hydroxynaphthalen-1-yl)-8-fluoro-2-(((2R,7aS)-2-fluorotetrahydro-1H-pyrrolizin-7a(5H)-yl)methoxy)pyrido[4,3-d]pyrimidin-4-yl)piperidine-3,4-diol]
15 | – | 571 | CCc1c(F)ccc2cc(O)cc(-c3ncc4c(N5CCCC(O)(C(F)F)C5)nc(OC[C@@]56CCCN5C[C@H](F)C6)nc4c3F)c12 (single isomer, unassigned) [Example 40]
11 | – | 2730 | CCc1c(F)ccc2cc(O)cc(-c3ncc4c(N5CC(C)CC(C(N)=O)C5)nc(OC[C@@]56CCCN5C[C@H](F)C6)nc4c3F)c12 (single isomer, unassigned) [Example 163]
10 | – | 614 | CCc1c(F)ccc2cc(O)cc(-c3ncc4c(N5CCCCC(C)(O)C5)nc(OC[C@@]56CCCN5C[C@H](F)C6)nc4c3F)c12 (single isomer, unassigned) [Example 136]
9 | > 10000 | – | CCc1c(F)ccc2cc(O)cc(-c3ncc4c(N5CCC(C(N)=O)C5)nc(OC[C@@]56CCCN5C[C@H](F)C6)nc4c3F)c12 (stereo partly drawn) [Example 3, 1-(7-(8-Ethyl-7-fluoro-3-hydroxynaphthalen-1-yl)-8-fluoro-2-(((2R,7aS)-2-fluorotetrahydro-1H-pyrrolizin-7a(5H)-yl)methoxy)pyrido[4,3-d]pyrimidin-4-yl)pyrrolidine-3-carboxamide]
6 | – | 1030 | C#Cc1c(F)ccc2cc(O)cc(-c3ncc4c(N5CC6CC(O)C(C6)C5)nc(OC[C@@]56CCCN5C[C@H](F)C6)nc4c3F)c12 (single isomer, unassigned) [Example 27]
3 | 414 | – | CCc1c(F)ccc2cc(O)cc(-c3ncc4c(N5C[C@H](C)C[C@@H](O)C5)nc(OC[C@@]56CCCN5C[C@H](F)C6)nc4c3F)c12 (relative stereo) [Example 160, rel-(3R,5R)-1-(7-(8-Ethyl-7-fluoro-3-hydroxy-naphthalen-1-yl)-8-fluoro-2-(((2R,7aS)-2-fluorotetrahydro-1H-pyrrolizin-7a(5H)-yl)methoxy)pyrido[4,3-d]pyrimidin-4-yl)-5-methylpiperidin-3-ol]
3 | 399 | – | Oc1cc(Cl)c(C2CC2)c(-c2ncc3c(N4CC5CC(O)C(C5)C4)nc(OC[C@@]45CCCN4C[C@H](F)C5)nc3c2F)c1 (single isomer, unassigned) [Example 30]
3 | – | 1200 | CCc1c(F)ccc2cc(O)cc(-c3ncc4c(N5CC(C)CC(C(N)=O)C5)nc(OC[C@@]56CCCN5C[C@H](F)C6)nc4c3F)c12 (single isomer, unassigned) [Example 164]
2 | 32 | – | C#Cc1cccc2cc(O)cc(-c3ncc4c(N5CC6CC(O)C(C6)C5)nc(OC[C@@]56CCCN5C[C@H](F)C6)nc4c3F)c12 (single isomer, unassigned) [Example 31]
2 | – | 13 | CCc1c(F)ccc2cc(O)cc(-c3ncc4c(N5CCCC(O)(C(F)F)C5)nc(OC[C@@]56CCCN5C[C@H](F)C6)nc4c3F)c12 (single isomer, unassigned) [Example 39]
2 | – | 40 | CCc1c(F)ccc2cc(O)cc(-c3ncc4c(N5CCCCC(C)(O)C5)nc(OC[C@@]56CCCN5C[C@H](F)C6)nc4c3F)c12 (single isomer, unassigned) [Example 137]
1 | 31 | – | CCc1cccc2cc(O)cc(-c3ncc4c(N5CC6CC(O)C(C6)C5)nc(OC[C@@]56CCCN5C[C@H](F)C6)nc4c3F)c12 (single isomer, unassigned) [Example 29]
1 | 165 | – | CCc1c(F)ccc2cc(O)cc(-c3ncc4c(N5CCC[C@@H](S(N)(=O)=O)C5)nc(OC[C@@]56CCCN5C[C@H](F)C6)nc4c3F)c12 [Example 1, (R)-1-(7-(8-Ethyl-7-fluoro-3-hydroxynaphthalen-1-yl)-8-fluoro-2-(((2R,7aS)-2-fluorotetrahydro-1H-pyrrolizin-7a(5H)-yl)methoxy)pyrido[4,3-d]pyrimidin-4-yl)piperidine-3-sulfonamide]
